Laboratory results reported in patent publication US6358973B1, “Benzazine derivatives as phosphodiesterase 4 inhibitors” (Zambon Group S.p.A., priority 1998, dated 2002).

Target: PDE 4 enzyme
Experiment: PDE 4 enzyme inhibition (SPA, Amersham kit)
Assay type: biochemical
Details: PDE 4 purified from human PMNs; cAMP 1 μM; 40 minutes at 30° C.; 9 concentrations
Excerpt: Evaluation of the PDE 4 Enzyme Inhibition a) Purification of Human Polymorphonucleate Leukocytes
The polymorphonucleate leukocytes (PMNs) were isolated from peripheral blood of healthy volunteers according to what described by Boyum A., Scand. J. Immunol., 1976, 5th suppl., 9). Shortly, the isolation of the PMNs was effected by Ficoll-Paque gradient centrifugation followed by sedimentation on dextrane and the erythrocyte contamination was eliminated by hypotonic lysis. […]
b) PDE 4 Enzyme Purification
The human PMNs were re-suspended in TRIS/HCl buffer (10 mM pH 7.8) containing MgCl2 (5 mM), EGTA (4 mM), mercaptoethanol (5 mM), TRITON-X100 (1%), pepstatin A (1 μM), PMSF (100 μM) and leupeptin (1 μM), and homogenised by Polytron. […]
The enzyme activity was evaluated with an Amersham kit based on the SPA (Scintillation Proximity Assay) technique. […] The radioactivity due to the particles was measured in a β-emitting counter. The results are expressed as percent activity versus the control present in each experiment. The IC50 values were calculated over 9 concentrations equidistant in logarithmic scale using a 4-parameters logistic function by software.

Row | IC50 | SMILES
1 | 35.9 ± 4.7 nM | COc1ccc2c(c1CC1CCCC1)CCN=C2Cc1c(Cl)cncc1Cl [Compound 20, 5-Cyclopentylmethyl-1-(3,5-dichloro-pyridin-4-ylmethyl)-6-methoxy-3,4-dihydro-isoquinoline]

System: not given
Experiment: not given
Details: not given

Row | SMILES | melting point
2 | COc1ccc2c(c1)c(-c1ccccc1)cc(=O)n2Cc1c(Cl)cncc1Cl [Compound 23, 1-(3,5-Dichloropyridin-4-ylmethyl)-6-methoxy-4-phenyl-1H-quinolin-2-one] | 191 to 192 °C
3 | COc1cccc2c1C(Cc1c(Cl)cncc1Cl)=NCC2CC1CCCC1.Cl.Cl (stereo not drawn) | 189 to 190 °C (dec.)

Now from value to compound:

Row | melting point | SMILES
4 | 135 to 137 °C (dec.) | COc1ccc2c(c1)C(CCCCCCc1ccccc1)CN=C2Cc1c(Cl)cncc1Cl.Cl.Cl (stereo not drawn)
5 | 162 to 164 °C (dec.) | COc1ccc2c(c1)C(CC1CCCC1)CN=C2Cc1c(Cl)cncc1Cl.Cl.Cl (stereo not drawn)
6 | 117 to 119 °C (dec.) | COc1cccc2c1C(Cc1c(Cl)cncc1Cl)=NCC2CCCCCCc1ccccc1.Cl.Cl (stereo not drawn)
